Results reported in ChEMBL document CHEMBL3272295, “Drugs derived from cannabinoids. 5. delta6a,10a-Tetrahydrocannabinol and heterocyclic analogs containing aromatic side chains” (J Med Chem, 1976).

Columns and labels:
[1] = Acute toxicity in po dosed mouse; format: organism-based; conditions: in vivo
Rattus norvegicus [2] = assay: Antihypertensive activity in spontaneously hypertensive rat model assessed as reduction in blood pressure at 3 mg/kg, po after 3 hrs; format: functional; set-up: scale not given: the % may be the effect or the level left
Rattus norvegicus [3] = assay: Antihypertensive activity in spontaneously hypertensive rat model assessed as reduction in blood pressure at 3 mg/kg, po after 24 hrs; format: functional; set-up: scale not given: the % may be the effect or the level left
Rattus norvegicus [4] = assay: Antihypertensive activity in spontaneously hypertensive rat model assessed as reduction in blood pressure at 1 mg/kg, po after 3 hrs; format: functional; set-up: scale not given: the % may be the effect or the level left
Rattus norvegicus [5] = assay: Antihypertensive activity in spontaneously hypertensive rat model assessed as reduction in blood pressure at 1 mg/kg, po after 24 hrs; format: functional; set-up: scale not given: the % may be the effect or the level left
Rattus norvegicus [6] = assay: Analgesic activity in Sprague-Dawley rat assessed as increase in pain threshold at 40 mg/kg, po after 15 to 90 mins by tail flick test; format: functional
Mus musculus [7] = assay: Analgesic activity in mouse assessed as inhibition of acetic acid-induced writhing at 10 mg/kg, po administered 30 mins prior to acetic acid challenge measured after 5 mins for 20 mins; format: functional
Rattus norvegicus [8] = assay: Antianxiety activity in Long-Evans rat assessed as reduction in motor activity at 10 mg/kg, po after 2 hrs relative to vehicle-treated control; format: functional; set-up: scale not given: the % may be the effect or the level left
Rattus norvegicus [9] = assay: Antipsychotic activity in rat assessed as reduction of methamphetamine-induced hyperactivity at 5 mg/kg, po administered prior to methamphetamine challenge relative to vehicle-treated control; format: functional; set-up: scale not given: the % may be the effect or the level left
Rattus norvegicus [10] = assay: (§1) Antidiarrheal activity in Charles River rat assessed as inhibition of castor oil-induced diarrhea by measuring protected animals at 0.1 mg/kg, po administered 1 hr prior to castor oil challenge measured after 1 hr relative to vehicle-treated control; format: functional
Rattus norvegicus [11] = assay: Antidiarrheal activity in Charles River rat assessed as inhibition of castor oil-induced diarrhea by measuring protected animals at 0.4 mg/kg, po administered 1 hr prior to castor oil challenge measured after 1 hr relative to vehicle-treated control; format: functional
Rattus norvegicus [12] = assay: Antidiarrheal activity in Charles River rat assessed as inhibition of castor oil-induced diarrhea by measuring protected animals at 0.8 mg/kg, po administered 1 hr prior to castor oil challenge measured after 1 hr relative to vehicle-treated control; format: functional
Rattus norvegicus [13] = assay: Antipsychotic activity in rat assessed as reduction of methamphetamine-induced hyperactivity at 2.5 mg/kg, po administered prior to methamphetamine challenge relative to vehicle-treated control; format: functional; set-up: scale not given: the % may be the effect or the level left
Rattus norvegicus [14] = assay: Antihypertensive activity in spontaneously hypertensive rat model assessed as reduction in blood pressure at 5 mg/kg, po after 3 hrs; format: functional; set-up: scale not given: the % may be the effect or the level left
Rattus norvegicus [15] = assay: Antihypertensive activity in spontaneously hypertensive rat model assessed as reduction in blood pressure at 5 mg/kg, po after 24 hrs; format: functional; set-up: scale not given: the % may be the effect or the level left
Felis catus [16] = assay: Hypnotic activity in cat assessed as increase in total sleep time at 0.5 mg/kg administered orally through diet measured for 12 hrs by EEG analysis; format: functional; conditions: route oral
Felis catus [17] = assay: Hypnotic activity in cat assessed as increase in non-REM sleep time at 0.5 mg/kg administered orally through diet measured for 12 hrs by EEG analysis; format: functional; conditions: route oral
Mus musculus [18] = assay: Analgesic activity in po dosed mouse assessed as inhibition of acetic acid-induced writhing administered 30 mins prior to acetic acid challenge measured after 5 mins for 20 mins; format: functional
Rattus norvegicus [19] = assay: Antianxiety activity in Long-Evans rat assessed as reduction in motor activity at 1 mg/kg, po after 2 hrs relative to vehicle-treated control; format: functional; set-up: scale not given: the % may be the effect or the level left
Rattus norvegicus [20] = assay: Analgesic activity in po dosed Sprague-Dawley rat after 15 to 90 mins by tail flick test; format: functional
Mus musculus [21] = assay: Antianxiety activity in albino BALB/cJ mouse assessed as reduction in footshock-induced fighting behavior at 10 mg/kg, po after 30 to 90 mins; format: functional; set-up: scale not given: the % may be the effect or the level left
Rattus norvegicus [22] = assay: Antianxiety activity in Long-Evans rat assessed as reduction in motor activity at 5 mg/kg, po after 2 hrs relative to vehicle-treated control; format: functional; set-up: scale not given: the % may be the effect or the level left
Rhesus monkey = assay: Antianxiety activity in po dosed rhesus monkey assessed as antiagressive behavior measured every hour post dosing; format: functional; conditions: Macaca mulatta, read-out: MED
Canis familiaris = assay: Antianxiety activity in po dosed dog assessed as ataxia administered as single dose measured up to 24 hrs; format: functional; conditions: Canis lupus familiaris, read-out: MED
Rattus norvegicus [23] = assay: as §1, with “0.2” for “0.1”, “po administered for 5 days followed by 0.2 mg/kg, po on test day” for “po”; format: functional

CC1CCC2=C(C1)c1c(O)cc(C(C)CCc3ccc(F)cc3)cc1OC2(C)C (stereo not drawn)
LD50 [1]: ≥ 1000 mg/kg | Activity (Rattus norvegicus [2]): 28% | Activity (Rattus norvegicus [3]): 8% | Activity (Rattus norvegicus [4]): 8% | Activity (Rattus norvegicus [5]): 5% | Activity (Rattus norvegicus [6]): 70% | inhibition in vivo at 10 mg/kg (Mus musculus [7]): 27% | Activity (Rattus norvegicus [8]): 72% | Activity (Rattus norvegicus [9]): 23%

CC1CCC2=C(C1)c1c(OC(=O)CCCN3CCCCC3)cc(C(C)CCCc3ccc(F)cc3)cc1OC2(C)C.Cl (stereo not drawn)
inhibition in vivo at 0.1 mg/kg (Rattus norvegicus [10]): 10% | inhibition in vivo at 0.4 mg/kg (Rattus norvegicus [11]): 70% | inhibition in vivo at 0.8 mg/kg (Rattus norvegicus [12]): 90% | LD50 [1]: ≥ 1000 mg/kg | Activity (Rattus norvegicus [13]): 50% | Activity (Rattus norvegicus [14]): 25% | Activity (Rattus norvegicus [15]): 19% | Time (Felis catus [16]): 50 min | Time (Felis catus [17]): 73 min | ED50 (Mus musculus [18]): 1.76 mg/kg | Activity (Rattus norvegicus [19]): 38% | ED50 (Rattus norvegicus [20]): 1.46 mg/kg | Activity (Mus musculus [21]): 73% | Activity (Rattus norvegicus [22]): 72% | Activity (Rattus norvegicus [8]): 95% | minimal effective dose (Rhesus monkey): 1 mg/kg | minimal effective dose (Canis familiaris): 0.2 mg/kg | Activity (Rattus norvegicus [9]): 75%

CCOC(=O)C1(c2ccccc2)CCN(CCC(C#N)(c2ccccc2)c2ccccc2)CC1 [DIPHENOXYLATE]
inhibition in vivo at 0.2 mg/kg (Rattus norvegicus [23]): 90%
